Measured values as given in patent publication US20100022483A1, “Substituted Tetracycline Compounds” (Paratek Pharmaceuticals, Inc., priority 2008, published 2010).
Values after ≈ are worked out from the molar mass of the structure shown. Like-named read-outs stand apart in the source and are kept apart here.

How the values were obtained:
gram positive bacteria = test: In vitro anti-bacterial activity assay (broth dilution MIC), gram positive bacteria; assay type: cell-based, S. aureus; details: for MIC: 18 h
In short: (§1)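 Broth dilution MIC following CLSI M7-A2: compounds serially diluted, log-phase test strains added to final ~5×10^5 CFU/ml, incubated ~18 hours at 35° C in ambient air. Plates read on microplate reader or visually; MIC is lowest concentration inhibiting growth.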

gram negative bacteria = test: In vitro anti-bacterial activity assay (broth dilution MIC), gram negative bacteria; assay type: cell-based, E. coli
In short: as §1

CHO-K1 cells = test: in vitro; assay type: cell-based; details: Chinese hamster, 24 h
3T3 fibroblast cells = test: In vitro phototoxicity assay (neutral red; UV light-treated vs dark control plates); assay type: cell-based; details: for Photo Toxicity UV Tox50: UV light 50 minutes; for Photo Toxicity Dark Tox50: dark control plate
In short: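 Neutral red viability readout (A535 after EtOH/acetic acid extraction) compares paired plates: one exposed 50 min to UV at 1.6–1.8 mW/cm^2, one held in darkness, both dosed with compound in HBSS and recovered overnight. 3T3 fibroblast cells used; phototoxicity taken as the difference.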

[1] = Mammalian cytotoxicity assay (resazurin), COS-1 cells; assay type: cell-based; details: African green monkey, read-out: Cytotox. COS-1
In short: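 Cells seeded overnight at 37° C., 5% CO2, then exposed to serial compound dilutions for 24 hours. Medium replaced with resazurin (0.042 mg/ml in PBS with Ca and Mg) for 2 hours plus 30 minutes dark at room temperature; fluorescence read at ex 535/em 590 nm, IC50 taken as 50% growth inhibition.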

in vitro = assay type: cell-based; details: Chinese hamster, Cytotox. CHO-K1
[2] = Staphylococcus aureus, S. aureus MRSA5, read-out: Median MIC's G+ S. aureus MRSA5
[3] = Staphylococcus aureus, S. aureus RN450, read-out: Median MIC's G+ S. aureus RN450
[4] = Streptococcus pneumoniae, S. pneumoniae 157E-Strep, read-out: Median MIC's G+ S. pneumoniae 157E-Strep
[5] = Escherichia coli, 18 h, E. coli D1 209, read-out: Median MIC's G− E. coli D1 209
[6] = Escherichia coli, 18 h, E. coli MG 1655, read-out: Median MIC's G− E. coli MG 1655
[7] = Escherichia coli, ATCC25922, 18 h, E. coli ATCC 25922, read-out: Median MIC's G− E. coli ATCC 25922
[8] = Pseudomonas aeruginosa, 18 h, P. aeruginosa K201 PAO6609, read-out: Median MIC's G− P. aeruginosa K201 PAO6609

CN(C)CCCNC(=O)c1cccc(-c2ccc(O)c3c2C[C@H]2C[C@H]4[C@H](N(C)C)C(O)=C(C(N)=O)C(=O)[C@@]4(O)C(O)=C2C3=O)c1 [J]
MIC (gram positive bacteria; [2]): 64 µg/mL (≈ 103 µM) | MIC (gram positive bacteria; [3]): 1 µg/mL (≈ 1.62 µM) | MIC (gram positive bacteria; [4]): 1 µg/mL (≈ 1.62 µM) | MIC (gram negative bacteria; [5]): 64 µg/mL (≈ 103 µM) | MIC (gram negative bacteria; [6]): 32 µg/mL (≈ 51.7 µM) | MIC (gram negative bacteria; [7]): 32 µg/mL (≈ 51.7 µM) | MIC (gram negative bacteria; [8]): 64 µg/mL (≈ 103 µM) | IC50 (CHO-K1 cells): > 40.3 µM | Photo Toxicity UV Tox50 (3T3 fibroblast cells): >130.13 µM | Photo Toxicity Dark Tox50 (3T3 fibroblast cells): >130.13 µM

CN(C)CCCNC(=O)c1cccc(-c2ccc(O)c3c2C[C@H]2C[C@H]4[C@H](N(C)C)C(O)=C(C(N)=O)C(=O)[C@@]4(O)C(O)=C2C3=O)c1 [Q]
Median MIC's G+ S. aureus MRSA5 (gram positive bacteria; S. aureus MRSA5): 64 µg/mL | Median MIC's G+ S. aureus RN450 (gram positive bacteria; S. aureus RN450): 2 µg/mL | Median MIC's G+ S. pneumoniae 157E-Strep (gram positive bacteria; S. pneumoniae 157E-Strep): 1 µg/mL | Median MIC's G− E. coli ATCC 25922 (gram negative bacteria; E. coli ATCC 25922): 64 µg/mL | Median MIC's G− E. coli D1 209 (gram negative bacteria; E. coli D1 209): 64 µg/mL | Median MIC's G− E. coli MG 1655 (gram negative bacteria; E. coli MG 1655): 64 µg/mL | Median MIC's G− P. aeruginosa K201 PAO6609 (gram negative bacteria; P. aeruginosa K201 PAO6609): 64 µg/mL | IC50 (CHO-K1 cells): > 137 µM | Photo Toxicity UV Tox50 (3T3 fibroblast cells): >137.36 µM | Photo Toxicity Dark Tox50 (3T3 fibroblast cells): >137.36 µM

CC(=O)NCCNC(=O)c1cccc(-c2ccc(O)c3c2C[C@H]2C[C@H]4[C@H](N(C)C)C(O)=C(C(N)=O)C(=O)[C@@]4(O)C(O)=C2C3=O)c1 [S]
MIC (gram positive bacteria; [2]): 32 µg/mL (≈ 51.7 µM) | MIC (gram positive bacteria; [3]): 2 µg/mL (≈ 3.23 µM) | MIC (gram positive bacteria; [4]): 2 µg/mL (≈ 3.23 µM) | MIC (gram negative bacteria; [5]): 64 µg/mL (≈ 103 µM) | MIC (gram negative bacteria; [6]): 64 µg/mL (≈ 103 µM) | MIC (gram negative bacteria; [7]): 64 µg/mL (≈ 103 µM) | MIC (gram negative bacteria; [8]): 64 µg/mL (≈ 103 µM) | IC50 at 24 h [1]: > 13 µM | IC50 at 24 h (in vitro): > 13 µM | Photo Toxicity UV Tox50 (3T3 fibroblast cells): >129.75 µM | Photo Toxicity Dark Tox50 (3T3 fibroblast cells): >129.75 µM

CC(C)N(CCNC(=O)c1cccc(-c2ccc(O)c3c2C[C@H]2C[C@H]4[C@H](N(C)C)C(O)=C(C(N)=O)C(=O)[C@@]4(O)C(O)=C2C3=O)c1)C(C)C [T]
MIC (gram positive bacteria; [2]): 4 µg/mL (≈ 6.05 µM) | MIC (gram positive bacteria; [3]): 0.13 µg/mL (≈ 0.197 µM) | MIC (gram positive bacteria; [4]): 0.06 µg/mL (≈ 0.0908 µM) | MIC (gram negative bacteria; [5]): 8 µg/mL (≈ 12.1 µM) | MIC (gram negative bacteria; [6]): 16 µg/mL (≈ 24.2 µM) | MIC (gram negative bacteria; [7]): 4 µg/mL (≈ 6.05 µM) | MIC (gram negative bacteria; [8]): 64 µg/mL (≈ 96.9 µM) | IC50 at 24 h [1]: > 41.4 µM | IC50 at 24 h (in vitro): 36.2 µM | Photo Toxicity UV Tox50 (3T3 fibroblast cells): >133.57 µM | Photo Toxicity Dark Tox50 (3T3 fibroblast cells): >133.57 µM

CN(C)[C@@H]1C(O)=C(C(N)=O)C(=O)[C@@]2(O)C(O)=C3C(=O)c4c(O)ccc(-c5cccc(C(=O)NCCN6CCCCC6)c5)c4C[C@H]3C[C@@H]12 [U]
MIC (gram positive bacteria; [2]): 8 µg/mL (≈ 12.4 µM) | MIC (gram positive bacteria; [3]): 0.25 µg/mL (≈ 0.388 µM) | MIC (gram positive bacteria; [4]): 0.06 µg/mL (≈ 0.0931 µM) | MIC (gram negative bacteria; [5]): 8 µg/mL (≈ 12.4 µM) | MIC (gram negative bacteria; [6]): 4 µg/mL (≈ 6.2 µM) | MIC (gram negative bacteria; [7]): 4 µg/mL (≈ 6.2 µM) | MIC (gram negative bacteria; [8]): 64 µg/mL (≈ 99.3 µM) | IC50 at 24 h [1]: > 41 µM | IC50 at 24 h (in vitro): > 41 µM | Photo Toxicity UV Tox50 (3T3 fibroblast cells): >132.37 µM | Photo Toxicity Dark Tox50 (3T3 fibroblast cells): >132.37 µM

CN(C)CCNC(=O)c1cccc(-c2cc(N(C)C)c3c(c2O)C(=O)C2=C(O)[C@]4(O)C(=O)C(C(N)=O)=C(O)[C@@H](N(C)C)[C@@H]4C[C@@H]2C3)c1 [V, (4S,4aS,5aR,12aS)-4,7-Bis-dimethylamino-9-[3-(2-dimethylamino-ethylcarbamoyl)-phenyl]-3,10,12,12a-tetrahydroxy-1,11-dioxo-1,4,4a,5,5a,6,11,12a-octahydro-naphthacene-2-carboxylic acid amide]
MIC (gram positive bacteria; [2]): 64 µg/mL (≈ 98.8 µM) | MIC (gram positive bacteria; [3]): 16 µg/mL (≈ 24.7 µM) | MIC (gram positive bacteria; [4]): 32 µg/mL (≈ 49.4 µM) | MIC (gram negative bacteria; [5]): 64 µg/mL (≈ 98.8 µM) | MIC (gram negative bacteria; [6]): 64 µg/mL (≈ 98.8 µM) | MIC (gram negative bacteria; [7]): 64 µg/mL (≈ 98.8 µM) | MIC (gram negative bacteria; [8]): 64 µg/mL (≈ 98.8 µM) | IC50 at 24 h [1]: > 125 µM | IC50 at 24 h (in vitro): > 125 µM | Photo Toxicity UV Tox50 (3T3 fibroblast cells): >125.47 µM | Photo Toxicity Dark Tox50 (3T3 fibroblast cells): >125.47 µM

CN(C)[C@@H]1C(O)=C(C(N)=O)C(=O)[C@@]2(O)C(O)=C3C(=O)c4c(O)ccc(-c5cccc(C(=O)NCc6ccco6)c5)c4C[C@H]3C[C@@H]12 [Y]
MIC (gram positive bacteria; [2]): 1 µg/mL (≈ 1.63 µM) | MIC (gram positive bacteria; [3]): 0.06 µg/mL (≈ 0.0978 µM) | MIC (gram positive bacteria; [4]): 0.06 µg/mL (≈ 0.0978 µM) | MIC (gram negative bacteria; [5]): 64 µg/mL (≈ 104 µM) | MIC (gram negative bacteria; [6]): 64 µg/mL (≈ 104 µM) | MIC (gram negative bacteria; [7]): 64 µg/mL (≈ 104 µM) | MIC (gram negative bacteria; [8]): 64 µg/mL (≈ 104 µM) | IC50 at 24 h [1]: > 14.6 µM | IC50 at 24 h (in vitro): > 14.6 µM | Photo Toxicity UV Tox50 (3T3 fibroblast cells): >146.13 µM | Photo Toxicity Dark Tox50 (3T3 fibroblast cells): >146.13 µM

CN(C)CCNC(=O)c1cccc(-c2ccc(O)c3c2C[C@H]2C[C@H]4CC(O)=C(C(N)=O)C(=O)[C@@]4(O)C(O)=C2C3=O)c1 [Z, (4aS,5aR,12aS)-7-[3-(2-Dimethylamino-ethylcarbamoyl)-phenyl]-3,10,12,12a-tetrahydroxy-1,11-dioxo-1,4,4a,5,5a,6,11,12a-octahydro-naphthacene-2-carboxylic acid amide]
MIC (gram positive bacteria; [2]): 64 µg/mL (≈ 114 µM) | MIC (gram positive bacteria; [3]): 64 µg/mL (≈ 114 µM) | MIC (gram positive bacteria; [4]): 64 µg/mL (≈ 114 µM) | MIC (gram negative bacteria; [5]): 64 µg/mL (≈ 114 µM) | MIC (gram negative bacteria; [6]): 64 µg/mL (≈ 114 µM) | MIC (gram negative bacteria; [7]): 64 µg/mL (≈ 114 µM) | MIC (gram negative bacteria; [8]): 64 µg/mL (≈ 114 µM) | IC50 at 24 h [1]: > 15.9 µM | IC50 at 24 h (in vitro): > 15.9 µM | Photo Toxicity UV Tox50 (3T3 fibroblast cells): >158.85 µM | Photo Toxicity Dark Tox50 (3T3 fibroblast cells): >158.85 µM
